Source: PubChem BioAssay (NCI)
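Following 48 hours of exposure in 96-well plates, responses at five concentrations were used to interpolate endpoints linearly. TGI: concentration producing complete growth inhibition.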

Key:
Assay in all cases: NCI-60 cell line screen, 48 h
NCI-H522 lung = tested on: NCI-H522 lung
HCT-116 colon = tested on: HCT-116 colon
HOP-62 NSCLC = tested on: HOP-62 NSCLC
NCI/ADR-RES ovarian = tested on: NCI/ADR-RES ovarian
TK-10 renal = tested on: TK-10 renal
NCI-H460 lung = tested on: NCI-H460 lung
SK-MEL-5 melanoma = tested on: SK-MEL-5 melanoma
HT29 colon = tested on: HT29 colon
SK-OV-3 ovarian = tested on: SK-OV-3 ovarian

| Structure (SMILES) | TGI (NCI-H522 lung) | TGI (HCT-116 colon) | TGI (HOP-62 NSCLC) | TGI (NCI/ADR-RES ovarian) | TGI (TK-10 renal) | TGI (NCI-H460 lung) | TGI (SK-MEL-5 melanoma) | TGI (HT29 colon) | TGI (SK-OV-3 ovarian) |
| --- | --- | --- | --- | --- | --- | --- | --- | --- | --- |
| Cn1c(=O)c(C(=O)Nc2nc(C34CC5CC(CC(C5)C3)C4)cs2)c(O)c2ccccc21 | > 100 µM | > 100 µM | 36.2 µM | 70.2 µM | > 100 µM | > 100 µM | > 100 µM | > 100 µM |  |
| O=C1c2ccc(O)cc2C(=O)c2ccc(O)cc21 | > 100 µM | > 100 µM | > 100 µM |  | > 100 µM | > 100 µM | > 100 µM | > 100 µM | 84.8 µM |
| COc1cc2c(c(OC)c1OC)-c1ccc(SC)c(=O)cc1[C@@H](NCc1ccc(C#N)cc1)CC2 | 0.0081 µM | 0.0215 µM | > 100 µM |  | > 100 µM |  | 15.6 µM |  |  |
| CC(=O)OCCOCn1c2c(c(=S)[nH]c1=O)CCC2 | > 100 µM | > 100 µM | > 100 µM |  | > 100 µM |  | > 100 µM | > 100 µM |  |
| CC(C)(C)N=NNc1cn(C2OC(CO)C(O)C2O)c(=O)[nH]c1=O (stereo unspecified) | > 100 µM | > 100 µM | > 100 µM |  | > 100 µM | > 100 µM | > 100 µM | > 100 µM | > 100 µM |
| COc1cc2c(cc1OC)C(C(CO)CO)N(CC(O)CCl)CC2 (stereo unspecified) | > 100 µM |  | > 100 µM |  | > 100 µM | > 100 µM | > 100 µM | > 100 µM | > 100 µM |
| Cc1c(Cl)c2ccccc2n1S(=O)(=O)c1ccccc1 | 67.1 µM | > 100 µM | > 100 µM |  | > 100 µM | > 100 µM | > 100 µM | > 100 µM |  |
| CCc1cc(Cc2cc(Cl)c(NC(=O)C(=O)C3NC(=O)NC3=O)c(CC)c2)cc(Cl)c1NC(=O)C(=O)C1NC(=O)NC1=O (stereo unspecified) |  | 94.8 µM | > 100 µM |  | > 100 µM | > 100 µM | > 100 µM | 54 µM | > 100 µM |
| Cc1ccc(S(=O)(=O)N/N=C(\c2nc3ccc(Cl)cc3[nH]c2=O)C(O)c2cccc([N+](=O)[O-])c2)cc1 (stereo unspecified) | > 100 µM | > 100 µM | > 100 µM |  | > 100 µM | > 100 µM | > 100 µM | > 100 µM | > 100 µM |
| C[C@]12CCC(=O)C=C1CC[C@@H]1[C@@H]2[C@@H](O)C[C@@]2(C)[C@H]1CC[C@]2(O)C(=O)COC(=O)COCC(=O)O | > 100 µM | > 100 µM | > 100 µM |  | > 100 µM | > 100 µM | > 100 µM | > 100 µM | > 100 µM |
| O=C(c1ccc(Cl)cc1)c1ccc(OCCCOc2ccc(C(=O)c3ccc(Cl)cc3)cc2)cc1 | > 100 µM | > 100 µM | > 100 µM |  | > 100 µM | > 100 µM | > 100 µM | > 100 µM | > 100 µM |
| O=c1[nH]c(=O)n(C2OC(COP(=O)(O)OP(=O)(O)OC3OC(CO)C(O)C(O)C3O)C(O)C2O)cc1F (stereo unspecified) | 7.75 µM | 1.23 µM | 4.3 µM |  | 30.4 µM | 0.429 µM | 23.7 µM | > 100 µM | > 87.5 µM |
| O=C1Nc2ccccc2C12CCNC2Cc1ccccc1 (stereo unspecified) |  | > 100 µM | > 100 µM |  | > 100 µM | > 100 µM | > 100 µM | > 100 µM | > 100 µM |
| CCOC(=O)c1cc(-c2cc(OC)c(OC)c([N+](=O)[O-])c2)c([N+](=O)[O-])n1C | > 10 µM | > 10 µM |  | > 10 µM | > 10 µM | > 10 µM |  | > 10 µM |  |
| NC(CCCC(N)P(=O)(O)c1ccccc1)P(=O)(O)c1ccccc1 (stereo unspecified) | > 261 µM | > 261 µM | > 261 µM |  | > 261 µM | > 261 µM |  | > 261 µM | > 261 µM |
| COc1ccc(-c2cc(=O)c3cc4c(cc3[nH]2)OCO4)cc1OC | > 100 µM | > 100 µM | > 100 µM |  | > 100 µM | > 100 µM | > 100 µM | > 100 µM | > 100 µM |
| CCOC(=O)C1(C/C=C(/C)Cl)CCCC1=O (stereo unspecified) | > 100 µM | > 100 µM | > 100 µM |  | > 100 µM | > 100 µM | > 100 µM | > 100 µM | > 100 µM |
| N#CC1=C(N)n2c(s/c(=C\c3ccc(Cl)cc3)c2=O)=C(c2nc3ccccc3[nH]2)C1c1ccc(Cl)cc1 (stereo unspecified) | 3.68 µM | 3.61 µM | 4.68 µM |  | 2.62 µM | 8.03 µM | 11.3 µM |  |  |
| Cc1cccc2c(=O)c([Se]c3coc4c(C)cccc4c3=O)coc12 | > 100 µM | 17.2 µM | 32.9 µM |  | 69.7 µM | 21.3 µM | 32.7 µM | 61.7 µM | 31.5 µM |
| CN(C)c1ccc(C(=C(c2ccc(N(C)C)cc2)c2ccc(N(C)C)cc2)c2ccc(N(C)C)cc2)cc1 | 1.12 µM | 42.1 µM | > 100 µM |  | 31.5 µM | 32.3 µM | 31.8 µM | 35.2 µM | 41.8 µM |
